Measurements taken from the supplement of paper PMC10307832.

Assays:
Assay in all cases: relative viability (nuclei count vs DMSO), 5 days (fraction); higher = more cells survive
Adavosertib + Bortezomib = compound: C=CCn1c(=O)c2cnc(Nc3ccc(N4CCN(C)CC4)cc3)nc2n1-c1cccc(C(C)(C)O)n1 [Adavosertib] + CC(C)C[C@H](NC(=O)[C@H](Cc1ccccc1)NC(=O)c1cnccn1)B(O)O [Bortezomib] (partner 0.002 µM)
In short: (§1)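 One day after seeding in 1536-well plates, lung cancer cell lines were dosed by pin tool. Dosing was either single-drug or a fixed anchor-drug dose plus five library-drug doses (not always all listed) in √10 steps. After 5 days, nuclei were stained in one fix-and-stain step and counted on 4× images, and relative viability is the nuclei count of treated wells over that of vehicle wells, given as the median of duplicate plates.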

Adavosertib + Lapatinib = compound: C=CCn1c(=O)c2cnc(Nc3ccc(N4CCN(C)CC4)cc3)nc2n1-c1cccc(C(C)(C)O)n1 [Adavosertib] + CS(=O)(=O)CCNCc1ccc(-c2ccc3ncnc(Nc4ccc(OCc5cccc(F)c5)c(Cl)c4)c3c2)o1 [Lapatinib] (partner 2 µM)
In short: as §1

Adavosertib + Linsitinib = compound: C=CCn1c(=O)c2cnc(Nc3ccc(N4CCN(C)CC4)cc3)nc2n1-c1cccc(C(C)(C)O)n1 [Adavosertib] + C[C@]1(O)C[C@@H](c2nc(-c3ccc4ccc(-c5ccccc5)nc4c3)c3c(N)nccn32)C1 [Linsitinib] (partner 1 µM)
In short: as §1

Adavosertib + Tozasertib = compound: C=CCn1c(=O)c2cnc(Nc3ccc(N4CCN(C)CC4)cc3)nc2n1-c1cccc(C(C)(C)O)n1 [Adavosertib] + Cc1cc(Nc2cc(N3CCN(C)CC3)nc(Sc3ccc(NC(=O)C4CC4)cc3)n2)n[nH]1 [Tozasertib] (partner 0.1 µM)
In short: as §1

Adavosertib + Olaparib = compound: C=CCn1c(=O)c2cnc(Nc3ccc(N4CCN(C)CC4)cc3)nc2n1-c1cccc(C(C)(C)O)n1 [Adavosertib] + O=C(c1cc(Cc2n[nH]c(=O)c3ccccc23)ccc1F)N1CCN(C(=O)C2CC2)CC1 [Olaparib] (partner 8 µM)
In short: as §1

| Cell Line | relative viability (Adavosertib + Bortezomib; first compound 0.01 µM) | relative viability (Adavosertib + Bortezomib; first compound 0.03162 µM) | relative viability (Adavosertib + Bortezomib; first compound 0.1 µM) | relative viability (Adavosertib + Bortezomib; first compound 0.3162 µM) | relative viability (Adavosertib + Lapatinib; first compound 0.01 µM) | relative viability (Adavosertib + Lapatinib; first compound 0.03162 µM) | relative viability (Adavosertib + Lapatinib; first compound 0.1 µM) | relative viability (Adavosertib + Lapatinib; first compound 0.3162 µM) | relative viability (Adavosertib + Linsitinib; first compound 0.01 µM) | relative viability (Adavosertib + Linsitinib; first compound 0.03162 µM) | relative viability (Adavosertib + Linsitinib; first compound 0.1 µM) | relative viability (Adavosertib + Linsitinib; first compound 0.3162 µM) | relative viability (Adavosertib + Tozasertib; first compound 0.01 µM) | relative viability (Adavosertib + Tozasertib; first compound 0.03162 µM) | relative viability (Adavosertib + Tozasertib; first compound 0.1 µM) | relative viability (Adavosertib + Tozasertib; first compound 0.3162 µM) | relative viability (Adavosertib + Olaparib; first compound 0.01 µM) | relative viability (Adavosertib + Olaparib; first compound 0.03162 µM) | relative viability (Adavosertib + Olaparib; first compound 0.1 µM) | relative viability (Adavosertib + Olaparib; first compound 0.3162 µM) |
| --- | --- | --- | --- | --- | --- | --- | --- | --- | --- | --- | --- | --- | --- | --- | --- | --- | --- | --- | --- | --- |
| NCI-H596 | 1.27 | 1.01 | 1 | 1.14 | 0.995 | 1.12 | 1.01 | 1 | 1.04 | 1.01 | 1.01 | 1.11 | 1.03 | 0.826 | 1.02 | 0.93 | 0.736 | 0.791 | 0.52 | 0.591 |
| EPLC-272H | 0.959 | 0.805 | 0.866 | 0.732 | 0.745 | 0.958 | 0.844 | 0.739 | 1.12 | 1.14 | 0.958 | 0.878 | 0.281 | 0.315 | 0.197 | 0.277 | 0.955 | 0.674 | 0.566 | 0.2 |
| NCI-H647 | 1.01 | 0.748 | 1.11 | 0.642 | 1.23 | 1.08 | 1.08 | 0.727 | 1.12 | 1.04 | 1.28 | 0.454 | 0.273 | 0.276 | 0.245 | 0.317 | 0.549 | 0.581 | 0.459 | 0.209 |
| NCI-H2009 | 1.09 | 1.05 | 1.04 | 1.02 | 0.975 | 0.99 | 1.05 | 0.926 | 1.23 | 1.24 | 1.24 | 1.2 | 0.787 | 0.749 | 1.05 | 0.749 | 0.686 | 0.739 | 0.802 | 0.777 |
| NCI-H2228 | 0.875 | 0.941 | 0.818 | 0.358 | 1.39 | 1.13 | 1.46 | 0.494 | 0.629 | 0.623 | 0.76 | 0.395 | 0.276 | 0.277 | 0.249 | 0.204 |  | 0.749 | 0.519 | 0.27 |
| NCI-H520 | 0.708 | 0.803 | 0.553 | 0.535 | 0.923 | 0.822 | 0.802 | 0.858 | 0.883 | 0.794 | 1.11 | 0.874 | 0.406 | 0.437 | 0.347 | 0.411 | 0.345 | 0.332 | 0.308 | 0.332 |
| CAL-12T |  | 0.817 | 0.946 | 0.68 |  | 0.678 | 0.598 | 0.464 | 0.822 | 0.818 | 0.939 | 0.944 | 0.394 | 0.351 | 0.321 | 0.18 | 0.722 | 0.723 | 0.863 | 0.475 |
| NCI-H460 | 1.14 | 0.966 | 1.22 | 0.966 | 1.11 | 0.978 | 1.04 | 0.83 | 0.971 | 0.777 | 0.594 | 0.285 | 0.533 | 0.495 | 0.534 | 0.721 | 0.391 | 0.376 | 0.308 | 0.405 |
| NCI-H1437 | 0.56 | 0.596 | 0.475 | 0.518 | 0.83 | 0.778 | 0.831 | 0.812 | 1.08 | 1.11 | 1.12 | 1.09 | 0.415 | 0.389 | 0.433 | 0.421 | 0.65 | 0.613 | 0.643 | 0.566 |
| NCI-H2087 | 0.883 | 0.894 | 1.05 | 0.918 | 0.951 | 1.21 | 1.15 | 1.3 | 0.906 | 1.11 | 1.07 | 0.87 | 0.303 | 0.258 | 0.273 | 0.234 | 0.663 | 0.595 | 0.606 | 0.604 |
| LU99A | 1.34 | 0.998 | 1.09 | 0.827 | 1.02 | 0.96 | 0.956 | 0.639 | 0.575 | 0.656 | 0.499 | 0.417 | 0.284 | 0.273 | 0.263 | 0.273 | 0.238 | 0.224 | 0.209 | 0.179 |
| NCI-H1993 | 0.94 | 0.962 | 1.09 | 1.11 | 0.798 | 0.865 | 0.894 | 0.8 | 0.769 | 0.793 | 0.797 | 0.749 | 0.633 | 0.598 | 0.658 | 0.666 | 0.97 | 1.01 | 0.988 | 1.26 |
| NCI-H2347 | 0.763 | 0.911 | 0.875 | 0.763 | 0.889 | 0.912 | 1.13 | 1.03 | 0.944 | 0.93 | 1.09 | 0.914 | 0.476 | 0.674 | 0.718 | 0.511 | 0.584 | 0.595 | 0.548 | 0.54 |
| NCI-H1734 | 1.01 | 1.01 | 1.02 | 0.696 | 1.07 | 1.07 | 1.07 | 0.825 | 0.992 | 0.953 | 0.916 | 0.938 | 0.257 | 0.24 | 0.252 | 0.266 | 0.584 | 0.613 | 0.562 | 0.352 |
| HCC-44 | 0.889 | 0.95 | 0.89 | 1.04 | 0.976 | 1.04 | 1.08 | 1.14 | 0.628 | 0.659 | 0.683 | 0.794 | 1.02 | 0.951 | 1.24 | 1.15 | 1 | 0.943 | 1.02 | 1.02 |
| LCLC-97TM1 | 0.284 | 0.635 | 0.577 | 0.233 |  | 0.703 | 0.804 | 0.686 |  | 0.19 | 0.17 | 0.169 | 0.22 | 0.245 | 0.195 | 0.383 | 0.412 | 0.369 | 0.439 | 0.303 |
